In US20230075925A1, “NON-PERIPHERAL QUATERNARY AMMONIUM-MODIFIED ZINC PHTHALOCYANINE AND PREPARATION METHOD AND USE THEREOF” (FUZHOU UNIVERSITY, priority 2020, published 2023):

Legend:
[1] = system: melanoma cells B16-F10 tumors (proximal and distal); test: PDT / anti-PD-L1 combination therapy in bilateral B16-F10 tumor-bearing mouse model (tumor inhibition rate); assay type: in vivo; details: for tumor inhibition rate on proximal tumors (illuminated tumors): PDT group (phthalocyanine+illumination), 100 μL of 200 μM, 685 nm 15 mW/cm^2 5 min, 14 days
Description: A bilateral tumor-bearing mouse model of melanoma cells B16-F10 (proximal and distal) was established. During PDT, the proximal referred to an illuminated side, and the distal referred to a non-illuminated side. The distribution and metabolism of photosensitizers in the tumor-bearing mouse were investigated by a small animal fluorescence imager and a tissue extraction method, and PDT was conducted under optimal conditions. The following 5 groups of experiments were set up, with 5 mice in each group: a PBS control group; an anti-PD-L1 antibody treatment group; a simple phthalocyanine (no illumination) treatment group; a phthalocyanine+illumination treatment group, namely a PDT group; and a phthalocyanine+illumination+anti-PD-L1 antibody treatment group, namely a combination therapy group. The anti-PD-L1 antibody was purchased from BioX cell.
In the combination therapy group, the PDT group and the simple photosensitizer group, 100 μL of a phthalocyanine compound (at a concentration of 200 μM, diluted with 0.5% CEL) was administered to each mouse. The combination therapy group and the PDT group were irradiated by a laser with a wavelength of 685 nm (at an irradiation power of 15 mW/cm^2 for 5 min) on the right tumor (proximal tumor) 8 h to 12 h after the administration. The combination therapy group was administered at 50 μg of PD-L1 antibody/mouse immediately after laser treatment, and the antibody group was administered 50 μg of PD-L1 antibody/mouse at the same time. One treatment was given on the first and fourth day separately.
From the first treatment, a body weight and a tumor volume of all mice were measured every other day, and a tumor size was calculated according to a formula: tumor volume=tumor length×width×height×π/6; after 14 consecutive days of observation, a tumor inhibition rate of each experimental group was calculated.

[2] = system: human cervical cancer cells Hela; test: Dark toxicity and photodynamic activity on Hela cells (MTT cell viability); assay type: cell-based; details: 4 μM
Description: The non-peripheral quaternary ammonium-modified zinc phthalocyanine prepared in Example 1 was dissolved in a 1% castor oil derivative (Cremophor EL, wt %) aqueous solution to prepare a 0.1 mM photosensitizer. The dark toxicity and photodynamic activity of the photosensitizer were tested on human cervical cancer cells Hela.
0.1 mM or 0.2 mM of the photosensitizer was diluted into a cell medium to prepare a cell medium containing zinc phthalocyanine complexes at different concentrations. The cancer cells were cultured in the medium containing different concentrations of zinc phthalocyanine complexes for 2 h; after staining, the medium was discarded; and after washing with PBS, the cells were added into a new medium (without zinc phthalocyanine complexes). Illumination experiment group: the cells were irradiated with red light for 30 min at a power of irradiated light at 15 mW cm^−2 using red light with a wavelength greater than 600 nm as an excitation light source; non-illumination control group: the cells were placed in the dark for 30 min. After illumination or non-illumination, a cell viability was examined by MTT. The specific experimental steps referred to “Bioorganic & Medicinal Chemistry Letters, 2006, 16, 2450-2453”. […]

B16-F10 cells = test: Tumor recurrence (immune memory) after re-injection of B16-F10 cells following combination therapy; assay type: in vivo, ICR mouse; details: combination with PD-L1 antibody; 1×10^6 B16-F10 cells injected on 7th day after therapy, observed 21 d, 5 mice
Text: More importantly, the mice treated with a combination of the zinc phthalocyanine in Example 1 and the PD-L1 antibody have an immune memory effect, which can effectively prevent tumor recurrence. On a 7th day after the combination therapy of zinc phthalocyanine in Example 1 and PD-L1 antibody, 1×10^6 B16-F10 cells were subcutaneously injected into a left ventral side of each ICR mouse (5 mice in each group), and the mice were continued to be observed for 21 d. […] However, the mice in remaining control groups are observed to have obvious melanoma regrowth, and no ability is observed to prevent tumor recurrence.

Compound | tumor inhibition rate on proximal tumors (illuminated tumors) [1] [%] | cancer cells killed under red light irradiation ([2]; red light 15 mW cm^−2 for 30 min) [%] | dark toxicity (killing and growth inhibition of Hela cells without irradiation) ([2]; without irradiation, 2 h incubation) | tumor inhibition rate on distal tumors (unilluminated tumors) ([1]; combination therapy group: phthalocyanine+illumination+anti-PD-L1 antibody (50 μg/mouse)) [%] | effect on in situ tumors ([1]; combined with immune checkpoint blocker PD-L1 antibody) | effective rate in preventing recurrence (B16-F10 cells) [%]
1-[4-(aminoethyl)phenoxy] zinc phthalocyanine [Comparative Example 1, reference compound] | 69 |  |  |  |  | 
C[N+](C)(C)CCc1ccc(Oc2cccc3c4nc5nc(nc6nc(nc7[n-]c(nc([n-]4)c23)c2ccccc72)-c2ccccc2-6)-c2ccccc2-5)cc1.[I-].[Zn+2] [Example 1, 1-[4-(N,N,N-trimethyl-2-aminoethyl)phenoxy] zinc phthalocyanine iodide] | 51 | 100 | no dark toxicity | 90 | completely remove in situ tumors | 80
